According to patent US20060147932A1, “Methods of screening for modulators of nerve growth factor” (priority 2003, published 2006):

Tested on: Adult rat DRG neurons
Assay: Measurement of gene expression in adult DRG neurons by real-time PCR
Format: cell-based
Experimental: Dorsal root ganglia were dissected from adult (3-6 months old) Sprague-Dawley rats, and dissociated and cultured by standard techniques (Lindsay, 1988). Briefly, ganglia were stripped of their sheaths, and incubated in 0.125% collagenase type IV (Worthington) in Ham's F12 with 10% HIHS for two 90 minute periods at 37° C. They were then washed extensively and incubated in 0.25% trypsin (Worthington) in HBSS at 37 degrees for 30 minutes. After inactivation of trypsin with 10% heat inactivated horse serum and further washing, the ganglia were dissociated by gentle trituration through a flame polished Pasteur pipet.
Neurons were plated on polyornithine and laminin coated 96-well plates in defined serum free medium consisting of Hams F-14 nutrient mixture with plus 2 mM glutamine, 0.35% bovine serum albumin (Albumax II, Gibco-BRL or Pathocyte-5, ICN), 60 ng/ml progesterone, 16 ug/ml putrescine, 400 ng/ml L-thyroxine, 38 ng/ml sodium selenite, 340 ng/ml tri-iodo-thyronine, 60 ug/ml penicillin and 100 ug/ml streptomycin (Sigma) (Davies et al., 1993). NGF (10 ng/ml) and test compounds were added to the wells shortly before or after plating as described below.
Adult rat DRG neurons were plated in 96 well plates, exposed to different concentrations of NGF for 120 hours and specific mRNA expression was analysed using the Stratagene Mx4000 real time PCR instrument. These conditions allow detection of greater than 15-fold increase in substance P mRNA content relative to GAPDH mRNA at the highest concentration of NGF used (FIG. 1). In addition, it was shown that a greater than 3-fold reduction in galanin mRNA level relative to GAPDH mRNA at the highest concentration of NGF can be measured (FIG. 1).
After culture as described above for 5 days RNA was extracted and the ratio of substance P mRNA expression determined relative to GAPDH mRNA for RNA from each of the culture wells by RT-PCR. RT-PCR was also performed to determine the ratio of galanin to GAPDH mRNA for each RNA sample. […]

NGF: nerve growth factor, the first neurotrophin identified; acts through TrkA and p75 receptors
reduction in galanin mRNA level relative to GAPDH mRNA (highest concentration of NGF (range up to 50 ng/ml), 120 hours exposure, relative to cultures with no added NGF (FIG. 1)): greater than 3 fold | increase in substance P mRNA content relative to GAPDH mRNA (highest concentration of NGF used (range up to 50 ng/ml), 120 hours exposure, 96 well plates, relative to cultures with no added NGF (FIG. 1)): greater than 15 fold | combined difference in gene expression (substance P and galanin combined in a single assay) in the absence or presence of NGF (substance P mRNA relative to galanin mRNA, 120 hours exposure (FIG. 1)): approximately 50 fold
